Results on 4 compounds are retold here after patent US10183011B2, “Anti-depression compounds” (Board of Regents of the University of Texas System, priority 2009, dated 2019).

Data set [1] can be described thus: Plasma, brain and spinal cord levels in G93A-SOD1 study (LC/MS/MS). The following applies: 20 mg/kg/day for 21 days; for spinal cord accumulation relative to other compound: six hours after last injection. The format is in vivo, mouse. Here is the method: FIG. 37. Plasma, brain and spinal cord levels of P7C3A20, P7C3 and Dimebon. Five mice for each compound group were treated for 21 days with 20 mg/kg/day of the compound, starting on day 85. Blood, brain and spinal cord were harvested six hours after the last injection and compound levels were measured by LC/MS/MS. Concentrations are presented as mean±SEM.

Data set [2] relates to spinal cord motor neurons. The experiment in a line: Spinal motor neuron survival (ChAT) in G93A-SOD1 mice, treatment from disease onset (day 80). The format is in vivo, mouse. The note with it: 20 mg/kg/day from day 80; days 90-120. The method, then:
FIG. 34A and FIG. 34B. P7C3A20 and P7C3 block motor neuron cell death in the spinal cord when administered at the time of disease onset to G93A-SOD1 mutant mice. Treatment of G93A-SOD1 mutant mice with 20 mg/kg/d of P7C3A20, P7C3 or Dimebon, or the appropriate vehicle, was initiated on day 80. Five mice from each group were sacrificed on days 90, 100, 110 and 120. The number of spinal cord motor neurons per cubic millimeter of lumbar spinal cord was determined through immunohistochemical staining for ChAT and quantification with NIH Image J software. All images were analyzed blind to treatment group. Spinal cord motor neurons in G93A-SOD1 mutant mice died over time as expected. Spinal cord motor neuron cell death was blocked by administration of P7C3A20. P7C3 was intermediately protective, while Dimebon had no neuroprotective efficacy. (FIG. 34A) Representative staining of ChAT of one ventral horn from each of the 5 mice in each treatment group at 110 days. (FIG. 34B) Graph representation.
Based on the promising results of early (day 40) administration of P7C3 to G93A-SOD1 mutant mice, we next sought to determine whether P7C3A20, P7C3 or Dimebon could protect ventral horn spinal motor neurons when administered at the expected time of disease onset (day 80). We initiated administration of either P7C3, P7C3A20 or Dimebon, each at a dose of 20 mg/kg/day, and analyzed motor neuron cell survival by staining lumbar spinal sections for choline acetyltransferase (ChAT). ChAT, the enzyme that synthesizes the neurotransmitter acetylcholine, serves as a marker for spinal cord motor neurons. All sections were counted blind to treatment group in order to quantify motor neuron survival, and five mice for each treatment group were analyzed at 90, 100, 110 and 120 days. Each treatment group was compared to its own sibling-matched group that received the corresponding vehicle. […]

In data set [3] the test system is SNc dopaminergic neurons. The experiment in a line: MPTP-toxicity to SNc dopaminergic neurons, treatment started 24 hours after the last MPTP dose. The class given is in vivo, mouse (C57Bl/6). The following applies: for dopaminergic axons in the striatum (TH staining): 20 mg/kg/day. The method, then:
FIG. 29A and FIG. 29B. Neuroprotective efficacy of P7C3 and P7C3A20 from MPTP-toxicity to SNc dopaminergic neurons. FIG. 29A—Test compounds were evaluated by dose response assay for their ability to block MPTP-neurotoxicity in the SNc. […] VEH group contained 30 animals: 15 animals that received the P7C3A20/P7C3 vehicle, and 15 animals that received Dimebon vehicle (saline). […] Representative immunohistochemical pictures of TH-staining in the SNc are shown below the graph. Dosing is expressed as total mg/day, and was administered intraperitoneally in divided doses twice daily. Data are expressed as mean±SEM. […] P7C3A20 does so with greater effect, and Dimebon offers no protection. Striatal sections were obtained from the same mice used in FIG. 2, and compound treatment groups are from mice that received a dose of 20 mg/kg/d.
We compared the protective efficacy of our agents in the Tatton and Kish model of MPTP administration, which induces prolonged apoptotic death of SNc dopaminergic neurons lasting about 3 weeks after a short course of daily MPTP administration. Mice were treated daily for 5 days with 30 mg/kg/day free base MPTP. On the sixth day, 24 hours after receiving the fifth and final dose of MPTP, daily treatment with P7C3, P7C3A20, Dimebon or vehicle was initiated. […] Dose-response studies were conducted in which mice received twice daily doses of each compound (or vehicle) for the ensuing 21 days (FIG. 29A). […] At the end of the 21 day treatment period, mice were sacrificed by transcardial perfusion with 4% paraformaldehyde, and fixed brains were sectioned through the striatum and SNc at 30 μM intervals. Every fourth section (spaced 120 μM apart) was stained with antibodies specific to tyrosine hydroxylase (TH) (Abcam, rabbit anti-TH, 1:2500). The TH enzyme catalyzes the conversion of the amino acid L-tyrosine to L-3,4-dihydroxyphenylalanine (L-DOPA), which serves as the precursor for dopamine. TH staining thus provides a means to immunohistochemically identify dopaminergic neurons. By counting the number of TH+ cells in the SNc, we were able to assess the neuroprotective efficacy of the three chemicals following MPTP exposure. All microscopic analysis was performed by two investigators, blind to treatment group.
15 adult male C57Bl/6 mice were individually housed for one week and then injected daily for 5 days with 30 mg/kg/day (i.p.) free base MPTP (Sigma). On day 6, 24 hours after receiving the fifth and final dose of MPTP, daily treatment with P7C3, P7C3A20, Dimebon or vehicle was initiated. Mice were housed in disposable caging, and protective gear and precautions were implemented for handling MPTP in accordance with UT Southwestern Medical Center policy. Dose response studies were conducted in which mice received twice daily doses of each compound (or vehicle) by intraperitoneal injection for the following 21 days, after which mice were sacrificed by transcardial perfusion with 4% paraformaldehyde. Brains were dissected, fixed overnight in 4% paraformaldehyde, and cryoprotected in sucrose for freezing by standard procedures. Frozen brains were sectioned through the striatum and SNc at 30 uM intervals, and every fourth section (spaced 120 μM apart) was stained with antibodies directed against tyrosine hydroxylase (TH) (Abcam, rabbit anti-TH, 1:2500). Diaminobenzidine was used as a chromagen, and tissue was counter-stained with hematoxylin to aid in visualization of the neuroanatomy. Images were analyzed with a Nikon Eclipse 90i motorized research microscope with Plan Apo lenses coupled with Metamorph Image Acquisition software (Nikon). TH+ neurons were counted with Image J software (NIH) in every section by 2 blinded investigators and results were averaged and multiplied by the sectioning interval to determine the total number of TH+ neurons per SNc.

In the case of `OC(CNc1ccccc1)Cn1c2ccc(Br)cc2c2cc(Br)ccc21` (centres unmarked) [Example P7C3], the “entry into brain and spinal cord” value in data set [1] is “able to enter both the brain and spinal cord”. For the same compound, the “spinal motor neuron cell death” value in data set [2] was “provided intermediate protection on days 100 (p=0.048) and 110 (p=0.01)”. The “enhanced survival of TH+ SNc neurons over VEH” value in data set [3] (5 mg/kg/day for 21 days) is listed as “about 40%”. In addition, in data set [3], the “dopaminergic axons in the striatum (TH staining)” value (from here on “dopaminergic axons”) is “qualitatively notable protection”. Also, the “protection relative to vehicle” value in data set [3] (20 mg/kg/day for 21 days) is reported as about 60%.

For the compound `OC(CNc1cccc2ccccc12)Cn1c2ccc(Cl)cc2c2cc(Cl)ccc21` (centres unmarked) [Example P7C3-S184], the “activity in the MPTP protection assay” value in data set [3] (new analogs, 10 mice for each compound) is “inactive in both in vivo assays”.

For `Cc1ccc2c(c1)c1c(n2CCc2ccc(C)nc2)CCN(C)C1` [Dimebon, 2,3,4,5-Tetrahydro-2,8-dimethyl-5-(2-(6-methyl-3-pyridyl)ethyl)-1H-pyrido(4,3-b)indole, reference compound], in data set [1], the “entry into brain and spinal cord” value was “able to enter both the brain and spinal cord”; the “spinal cord accumulation relative to other compound” value is recorded as “comparable levels of spinal cord accumulation to P7C3A20”. Further, the “spinal motor neuron cell death” value in data set [2] is “indistinguishable from vehicle treatment groups”. Moreover, in data set [3], the “dopaminergic axons” value is “offered no protection of dopaminergic axons in the striatum”. Also, the “protection from MPTP” value in data set [3] (any dose) is given as “failed to confer any measurable degree of protection from MPTP at any dose”.

In the case of `COc1cccc(NCC(F)Cn2c3ccc(Br)cc3c3cc(Br)ccc32)c1` (centres unmarked) [Example P7C3A20, N-(3-(3,6-dibromo-9H-carbazol-9-yl)-2-fluoropropyl)-3-methoxyaniline], in data set [1], the “entry into brain and spinal cord” value is “able to enter both the brain and spinal cord”; the “spinal cord accumulation relative to other compound” value is on record as “less than one-twentieth the concentration of P7C3”. The “spinal motor neuron cell death” value in data set [2] is “provided significant protection from spinal motor neuron cell death”. In data set [3] (1 mg/kg/day for 21 days), the “onset of efficacy, over VEH” value came out at 30%. In addition, in data set [3], the “dopaminergic axons” value was “almost completely blocked depletion of dopaminergic axons in the striatum”. In data set [3] (20 mg/kg/day for 21 days), the “number of dopaminergic neurons in the SNc relative to normal mice not exposed to MPTP” value is “about 85%”.
